Results published in US20250360091A1, “COMBINATION OF SGLT2 INHIBITOR AND MENTHOL AND USE THEREOF IN TREATMENT OF HEART DISEASE” (EAST CHINA UNIVERSITY OF SCIENCE AND TECHNOLOGY, priority 2023, published 2025).

Key:
[1] = tested on: Rat myocardial cells (H9c2); experiment: Glucose deprivation (GD)-induced myocardial cell injury model, cck8 cell survival, checkerboard (Example 1); assay type: cell-based; settings: empagliflozin used alone; GD 36-48 h
Description: In this example, a glucose deprivation (GD)-induced myocardial cell injury model was used to evaluate the protective effect of the drug composition on myocardial cells. Rat myocardial cells (H9c2) were purchased from the stem cell bank of the Chinese Academy of Sciences. Myocardial cells were cultured in high-glucose DMEM (containing 10% fetal bovine serum, 1% penicillin/streptomycin) culture medium and placed in an incubator at 37° C. and 5% CO2. After the myocardial cells basically covered the cell culture dish (10 cm), the cells were digested with trypsin and planted in a 96-well plate at a cell density of 8000 cells/well, 100 μL per well. When the cells covered the bottom of the dish, the DMEM culture medium was removed and the plate was washed once with PBS. The compound was diluted to the target concentration with sugar-free and serum-free DMEM, added to the plate, and treated with GD. […] The cell survival rates of empagliflozin (EMPA) 0-100 μM, L-menthol (MEN) 0-200 μM and combined concentrations were tested, and the cell survival rates of single drugs and combined drugs were input into CompuSyn (http://www.combosyn.com) to calculate the synergistic coefficient.

[2] = tested on: H9c2 cells; experiment: GD-induced injury: LDH release and crystal violet staining (Example 2); assay type: cell-based, Rat; settings: empagliflozin 100 μM and 200 μM; GD 48 h
Description: To further verify the anti-heart failure efficacy of the drug composition, H9c2 cells were seeded into 24-well plates. After the cells covered the bottom of the dish, the high-glucose DMEM was removed, the plate was washed once with PBS, and empagliflozin alone and different concentrations of the drug composition were prepared with sugar-free and serum-free DMEM medium, and added to the cells for glucose deprivation treatment. For the GD group, sugar-free and serum-free DMEM medium without drugs was added. For the NG group, high-glucose DMEM containing serum was continued to be added for culture. After 48 hours of glucose deprivation treatment, 50 μL of culture medium was taken to a 96-well plate, and the release of LDH in the culture medium was detected using an LDH detection kit. The culture medium was removed, the cells were placed on ice, and washed twice with pre-cooled PBS for 3 to 5 minutes each time. The cells were fixed with pre-cooled methanol at −20° C. for 10 minutes. Methanol was removed and the cells were returned to room temperature. […] The cells were placed in a 37° C. oven for drying, photographed under a microscope, and the staining was quantified by Image J. The larger the purple area, the more cells survived, and the more LDH was released, which indicated more cell damage. […]

SMILES: OC[C@H]1O[C@@H](c2ccc(Cl)c(Cc3ccc(O[C@H]4CCOC4)cc3)c2)[C@H](O)[C@@H](O)[C@@H]1O [empagliflozin]
- effective concentration of empagliflozin (cell survival) [1]: 50 µM
- cell survival rate (crystal violet purple area, LDH release) [2]: significantly increases the cell survival rate in a dose-dependent manner
